This passage reports MIC and ED50 results from patent US4288590A, “7 -[Dα-(4-Hydroxy-1,5-naphthyridine-3-carboxamido)-α-arylacetam ido]-3-(N,N-dimethyl-aminomethylpyridinium) methyl-3-cephem-4-carboxylates” (Bristol-Myers Company, priority 1980, dated 1981).

One test relates to S. aureus Smith A9537. Description: MIC, serial two-fold agar dilution (Table 1). The test is classed as cell-based. Particulars: Staphylococcus aureus, SMITHA9537, Mueller-Hinton agar. The protocol:
(§1) Minimum inhibitory concentrations (MIC) of BB-S 651, BB-S 669 and BB-S 676 were determined by serial two-fold agar dilution method using Steers' apparatus on Mueller-Hinton agar plate against 15 test organisms for primary screening as shown in Table 1.

Another test relates to E. coli Juhl A15119. Description: MIC, serial two-fold agar dilution (Table 1). The test is classed as cell-based. Particulars: Escherichia coli, JUHLA15119; E. coli Juhl A15119, cephalothin-sensitive; Mueller-Hinton agar. On the procedure: as §1
(In agar dilution the substance is mixed into plates at graded concentrations.)

The subject of another test is Ps. aeruginosa A15150. Description: MIC, serial two-fold agar dilution (Table 1). As to conditions: Pseudomonas aeruginosa, Mueller-Hinton agar. The class given is cell-based. On the procedure:
as §1

For the next test, the system named is Ps. aeruginosa A20717. Description: MIC, serial two-fold agar dilution (Table 1). Particulars: Pseudomonas aeruginosa, Mueller-Hinton agar. The class given is cell-based. The protocol:
as §1

A further test deals with S. aureus 209P A9497. Description: MIC, serial two-fold agar dilution (Table 1). As to conditions: Staphylococcus aureus; S. aureus 209P A9497; Mueller-Hinton agar; read-out: MIC. The class given is cell-based. The protocol:
as §1

In the next test the test system is Ps. aeruginosa A20229. Description: MIC, serial two-fold agar dilution (Table 1). The class given is cell-based. As to conditions: Pseudomonas aeruginosa, Mueller-Hinton agar. The protocol: as §1
The next test has as its system Ps. aeruginosa A20718. Description: MIC, serial two-fold agar dilution (Table 1). The test is classed as cell-based. As to conditions: Pseudomonas aeruginosa, Mueller-Hinton agar. On the procedure: as §1
The test system of a further test is E. coli A15164. Description: MIC, serial two-fold agar dilution (Table 1). As to conditions: Escherichia coli; E. coli A15164, cephalothin-resistant; Mueller-Hinton agar. The test is classed as cell-based. On the procedure:
as §1

Another test has as its system S. aureus #193. Description: MIC, serial two-fold agar dilution (Table 1). The test is classed as cell-based. As to conditions: Staphylococcus aureus; S. aureus #193, penicillinase-producing; Mueller-Hinton agar; read-out: MIC. The protocol:
as §1

In test [1] the test system is S. aureus BX-1633-2 A9606. Description: MIC, serial two-fold agar dilution (Table 1). Particulars: Staphylococcus aureus, BX16332A9606; S. aureus BX-1633-2 A9606, penicillinase-producing; Mueller-Hinton agar; read-out: MIC. The test is classed as cell-based. On the procedure: as §1
In another test the test system is S. marcescens A20019. Description: MIC, serial two-fold agar dilution (Table 1). The test is classed as cell-based. Particulars: Serratia marcescens, Mueller-Hinton agar. On the procedure:
as §1

Another test has as its system E. coli A9660. Description: MIC, serial two-fold agar dilution (Table 1). The test is classed as cell-based. Particulars: Escherichia coli; E. coli A9660, cephalothin-sensitive; Mueller-Hinton agar. The protocol:
as §1

In another test the test system is E. coli A15148. Description: MIC, serial two-fold agar dilution (Table 1). The test is classed as cell-based. Particulars: Escherichia coli; E. coli A15148, cephalothin-resistant; Mueller-Hinton agar. On the procedure:
as §1

Another test has as its system E. cloacae A9656. Description: MIC, serial two-fold agar dilution (Table 1). As to conditions: Enterobacter cloacae, Mueller-Hinton agar. The class given is cell-based. The protocol:
as §1

A further test relates to Ps. aeruginosa A9843. Description: MIC, serial two-fold agar dilution (Table 1). The test is classed as cell-based. As to conditions: Pseudomonas aeruginosa, Mueller-Hinton agar. The protocol:
as §1

The next test has as its system P. morganii A15153. Description: In vivo efficacy, experimental infection in mice. Particulars: Morganella morganii, A15153, in Mus musculus, im, 120 h, read-out: PD50 (median protective dose).
In the next test the test system is E. cloacae. Description: In vitro activity, MIC of strain group (Table 2). The test is classed as cell-based. As to conditions: Enterobacter cloacae; Gn-II E. cloacae, 7 strains; read-out: Geometric mean of MIC.
Another test deals with S. aureus BX-1633 A9606. Description: In vivo efficacy, experimental infection in mice. Particulars: Staphylococcus aureus, BX1633A9606, in Mus musculus, im, 120 h, read-out: PD50 (median protective dose).
The subject of the next test is P. putida. Description: In vitro activity, MIC of strain group (Table 2). The test is classed as cell-based. As to conditions: Pseudomonas putida; Gn-III P. putida, 5 strains; read-out: Geometric mean of MIC. The protocol:
as §1

Another test deals with P. maltophilia. Description: In vitro activity, MIC of strain group (Table 2). The class given is cell-based. Particulars: Stenotrophomonas maltophilia; Gn-III P. maltophilia, 13 strains; read-out: Geometric mean of MIC. The protocol:
as §1

Where a name gives a salt, the structure may show the parent alone.

Method for P. morganii A15153: (§2) The mice were treated with test compound by im route immediately after the bacterial challenge.
Method for S. aureus BX-1633 A9606: as §2

Regarding `CN(C)Cc1ccc[n+](CC2=C(C(=O)[O-])N3C(=O)C(NC(=O)[C@H](NC(=O)c4cnc5cccnc5c4O)c4ccc(O)cc4)C3SC2)c1` (stereo partly drawn) [BB-S 651, 7-[D-α-(4-Hydroxy-1,5-naphthyridine-3-carboxamido)-α-(4-hydroxyphenyl)acetamido]-3-(3-N,N-dimethylaminomethylpyridinium)methyl-3-cephem-4-carboxylate Hydrochloride], the minimum inhibitory concentration (MIC) against S. aureus Smith A9537 amounted to 3.1 µg/mL; against E. coli Juhl A15119, 6.3 µg/mL; against Ps. aeruginosa A15150, 0.8 µg/mL; in the test with Ps. aeruginosa A20717, 1.6 µg/mL; in the test with S. aureus 209P A9497, 0.8 µg/mL; in the test on Ps. aeruginosa A20229 it was 0.8 µg/mL. In addition, the MIC came to 0.8 µg/mL against Ps. aeruginosa A20718; 25 µg/mL against E. coli A15164; 6.3 µg/mL with S. aureus #193; 6.3 µg/mL in [1]; 50 µg/mL against S. marcescens A20019; 1.6 µg/mL with E. coli A9660. The MIC in the test on E. coli A15148 is 3.1 µg/mL; in the test on E. cloacae A9656, 12.5 µg/mL; against Ps. aeruginosa A9843, 1.6 µg/mL; in the test on E. cloacae it was > 100 µg/mL; in the test with P. putida, 22 µg/mL; in the test with P. maltophilia, 14 µg/mL. Besides, the ED50 in the test with P. morganii A15153 was > 100 mg/kg; in the test with S. aureus BX-1633 A9606, 6.3 mg/kg.
For `CCN1CCN(C(=O)N[C@@H](C(=O)N[C@@H]2C(=O)N3C(C(=O)O)=C(CSc4nnnn4C)CS[C@H]23)c2ccc(O)cc2)C(=O)C1=O` [Cefoperazone, reference compound], the ED50 in the test with P. morganii A15153 was found to be 6.3 mg/kg; in the test with S. aureus BX-1633 A9606, 1.6 mg/kg. Also, the MIC was > 100 µg/mL with P. putida and 47 µg/mL in the test on P. maltophilia.

As a reminder, the MIC is the smallest concentration in the dilution series that meets the test's criterion for growth inhibition.
